In general, Papp A→B refers to how fast a substance crosses the layer from the apical side.

The nature of this series: Apparent permeability from apical to basolateral side of human Caco-2 cell membrane. It is filed as ADME, cell-based. A general note: Caco-2 cells form a polarised layer with tight junctions and transporters.
Regarding `Cc1cc(O)cc(C)c1CC(N)C(=O)NCCCCc1nc(O)c(CCCCNC(=O)C(N)Cc2c(C)cc(O)cc2C)nc1C` (centres undefined), the Papp A→B turned out to be 0.845 ×10⁻⁶ cm/s.
On to `Cc1cc(O)cc(C)c1CC(N)C(=O)NCCCc1nc(O)c(CCCNC(=O)C(N)Cc2c(C)cc(O)cc2C)nc1C` (centres undefined), for which the Papp A→B turned out to be 0.547 ×10⁻⁶ cm/s.
Then `Cc1cc(O)cc(C)c1CC(N)C(=O)NCCCCNC(=O)C(N)Cc1c(C)cc(O)cc1C` (centres undefined), with 0.139 ×10⁻⁶ cm/s; and `NC(=O)[C@H](Cc1ccccc1)NC(=O)[C@H](Cc1ccccc1)NC(=O)[C@@H]1CCCN1C(=O)[C@@H](N)Cc1ccc(O)cc1` [ENDOMORPHIN 2], with 0.0643 ×10⁻⁶ cm/s.
